Data on 8 compounds can be found in patent publication US20210179578A1, “OX1 ANTAGONISTS” (Heptares Therapeutics Limited, priority 2017, published 2021).

For one assay, the target named is T1, human OX2 receptor (Homo sapiens, UniProt O43614).
T1 sequence (O43614 1-444): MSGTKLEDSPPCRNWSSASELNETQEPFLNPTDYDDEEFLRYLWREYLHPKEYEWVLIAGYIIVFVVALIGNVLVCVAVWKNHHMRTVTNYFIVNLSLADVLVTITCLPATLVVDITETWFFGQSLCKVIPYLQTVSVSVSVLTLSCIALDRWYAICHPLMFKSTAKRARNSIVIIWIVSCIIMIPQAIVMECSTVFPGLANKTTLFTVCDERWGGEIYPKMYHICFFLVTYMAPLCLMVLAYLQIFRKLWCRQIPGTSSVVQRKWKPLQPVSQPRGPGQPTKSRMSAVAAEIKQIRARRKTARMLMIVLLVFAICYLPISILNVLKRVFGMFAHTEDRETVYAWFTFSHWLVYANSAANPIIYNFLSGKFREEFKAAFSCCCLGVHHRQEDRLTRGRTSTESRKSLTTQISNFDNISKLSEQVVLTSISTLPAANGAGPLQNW
The experiment in a line: [3H]-radioligand binding assay, OX2. Set-up: made in house; host or cells: SF21 insect cells (baculovirus; P0 virus made in SF9). Particulars: [3H]-radioligand binding, human OX2 membranes; read-out: pKi average OX2 (converted). The method, boiled down: (§1)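 Membranes from baculovirus-infected SF21 cells expressing human OX1 (6.4 μg protein/well) or OX2 (1.4 μg/well) were incubated 90 min at rt in HEPES pH 7.4 saline buffer with a [3H]-benzothiadiazinone dioxide radioligand, then filtered and counted. NSB defined with 3.33 μM benzoxazolyl-diazepane methanone; Ki from IC50 by Cheng-Prusoff.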

In another assay the target is T2, human OX1 receptor (Homo sapiens, UniProt O43613).
T2 sequence (O43613 1-425): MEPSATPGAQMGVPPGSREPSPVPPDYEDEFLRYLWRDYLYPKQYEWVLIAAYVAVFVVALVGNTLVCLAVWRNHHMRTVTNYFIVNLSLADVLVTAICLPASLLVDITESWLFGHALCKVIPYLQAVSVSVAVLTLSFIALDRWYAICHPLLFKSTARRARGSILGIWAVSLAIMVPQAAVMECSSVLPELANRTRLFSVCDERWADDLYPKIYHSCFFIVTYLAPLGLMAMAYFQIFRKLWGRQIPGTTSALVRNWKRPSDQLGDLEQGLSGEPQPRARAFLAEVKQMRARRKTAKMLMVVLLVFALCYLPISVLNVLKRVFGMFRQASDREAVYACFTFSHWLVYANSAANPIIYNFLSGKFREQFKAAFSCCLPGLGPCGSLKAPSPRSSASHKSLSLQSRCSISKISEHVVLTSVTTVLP
The experiment in a line: [3H]-radioligand binding assay, OX1. Set-up: made in house; host or cells: SF21 insect cells (baculovirus; P0 virus made in SF9). Particulars: [3H]-radioligand binding, human OX1 membranes; read-out: pKi average OX1 (converted). The essentials: as §1

As for `CSc1cc(N2CCc3c(F)cccc3N(Cc3c(F)cc(Br)cc3F)C2=O)ccc1C` [Example 26, 1-(4-bromo-2,6-difluorobenzyl)-6-fluoro-3-[4-methyl-3-(methylsulfanyl)phenyl]-1,3,4,5-tetrahydro-2H-1,3-benzodiazepin-2-one], the Ki at human OX2 receptor is 100 nM; at human OX1 receptor it was 1.26 nM.

Turning to `Cc1ccc(N2CCc3c(F)cccc3N(Cc3c(F)cc(Br)cc3F)C2=O)cc1S(C)(=O)=O` [Example 27, 1-(4-bromo-2,6-difluorobenzyl)-6-fluoro-3-[4-methyl-3-(methylsulfonyl)phenyl]-1,3,4,5-tetrahydro-2H-1,3-benzodiazepin-2-one], the results for the Ki on human OX2 receptor and on human OX1 receptor were more than 316 nM and 1.58 nM, respectively.

`CCCc1cc(F)c(CN2C(=O)N(c3ccc(C)c(S(C)(=O)=O)c3)CCc3c(F)cccc32)c(F)c1` [Example 28, 1-(2,6-difluoro-4-propylbenzyl)-6-fluoro-3-[4-methyl-3-(methylsulfonyl)phenyl]-1,3,4,5-tetrahydro-2H-1,3-benzodiazepin-2-one]: the Ki at human OX2 receptor is more than 316 nM; on human OX1 receptor, 2 nM.

Regarding `Cc1cc(C)c(S(C)(=O)=O)cc1N1CCc2ccccc2N(Cc2c(F)cc(Br)cc2F)C1=O` [Example 29, 1-(4-bromo-2,6-difluorobenzyl)-3-[2,4-dimethyl-5-(methylsulfonyl)phenyl]-1,3,4,5-tetrahydro-2H-1,3-benzodiazepin-2-one], the values for the Ki on human OX2 receptor and at human OX1 receptor were 100 nM and 1.26 nM, respectively.

Turning to `Cc1cc(C)c(S(C)(=O)=O)cc1N1CCc2c(F)cccc2N(Cc2c(F)cc(Br)cc2F)C1=O` [Example 31, 1-(4-bromo-2,6-difluorobenzyl)-3-[2,4-dimethyl-5-(methylsulfonyl)phenyl]-6-fluoro-1,3,4,5-tetrahydro-2H-1,3-benzodiazepin-2-one], the Ki was 200 nM on human OX2 receptor and 1.26 nM on human OX1 receptor.

Turning to `Cc1ncc(N2CCc3c(F)cccc3N(Cc3c(F)cc(Br)cc3F)C2=O)cc1C(C)(F)F` [Example 32, 1-(4-bromo-2,6-difluorobenzyl)-3-[5-(1,1-difluoroethyl)-6-methylpyridin-3-yl]-6-fluoro-1,3,4,5-tetrahydro-2H-1,3-benzodiazepin-2-one], the results for the Ki at human OX2 receptor and on human OX1 receptor were 50.1 nM and 0.631 nM, respectively.

On to `COCc1cc(F)c(CN2C(=O)N(c3cnc(C)c(C(C)(F)F)c3)CCc3c(F)cccc32)c(F)c1` [Example 33, 3-[5-(1,1-difluoroethyl)-6-methylpyridin-3-yl]-1-[2,6-difluoro-4-(methoxymethyl)benzyl]-6-fluoro-1,3,4,5-tetrahydro-2H-1,3-benzodiazepin-2-one], for which the Ki is more than 251 nM at human OX2 receptor and 0.631 nM on human OX1 receptor.

Consider `CCCc1cc(F)c(CN2C(=O)N(c3cnc(C)c(C(C)(F)F)c3)CCc3c(F)cccc32)c(F)c1` [Example 34, 3-[5-(1,1-difluoroethyl)-6-methylpyridin-3-yl]-1-(2,6-difluoro-4-propylbenzyl)-6-fluoro-1,3,4,5-tetrahydro-2H-1,3-benzodiazepin-2-one], for which the Ki at human OX2 receptor was more than 251 nM; on human OX1 receptor, 1.58 nM.
